Source: BindingDB's records for patent US10709709 (Pfizer Inc., 2020)

biological target: Protein arginine N-methyltransferase 5 (Homo sapiens, UniProt O14744); assay: Biochemical Assay
Protocol: Compounds were solubilized in DMSO and serially diluted, using 3-fold dilutions, into 100% DMSO at a concentration 50-fold greater than the desired assay concentration. Following dilution, 1 ul was added to an empty 96-well microtiter plate. PRMT5/MEP50 protein complex was combined with H4(1-21) peptide ([…]) in PRMT5 assay buffer (50 mM Tris pH 8.5, 50 mM NaCl, 5 mM MgCl2, 1 mM EDTA, 1 mM TCEP) and 44 ul was added to the microtiter plate containing compound. S-Adenosyl-L-methionine (SAM) was prepared by combining 3H labelled SAM with unlabelled SAM in PRMT5 assay buffer such that the final SAM concentration was 10 uM and the specific activity was 0.2 uCi/ul. The reaction was initiated by adding 5 ul of SAM stock to the microtiter plate. The final reaction conditions were 10 nM PRMT5/MEP50 complex, 200 nM peptide and 1 uM SAM. Following a 25 minute incubation at room temperature, the reaction was stopped with the addition of 100 uL of 20% TCA. The 3H-peptide product was captured using a 96-well filter plate (MSIPN4B, Millipore) and washed 5 times with PBS buffer. Scintillation fluid (100 ul) was added to the dried filter plate and counted in a liquid scintillation counter. IC50 values were determined by fitting the data to the standard 4-parameter dose response equation using Pfizer proprietary software.

Chain of Protein arginine N-methyltransferase 5 (O14744 whole entry): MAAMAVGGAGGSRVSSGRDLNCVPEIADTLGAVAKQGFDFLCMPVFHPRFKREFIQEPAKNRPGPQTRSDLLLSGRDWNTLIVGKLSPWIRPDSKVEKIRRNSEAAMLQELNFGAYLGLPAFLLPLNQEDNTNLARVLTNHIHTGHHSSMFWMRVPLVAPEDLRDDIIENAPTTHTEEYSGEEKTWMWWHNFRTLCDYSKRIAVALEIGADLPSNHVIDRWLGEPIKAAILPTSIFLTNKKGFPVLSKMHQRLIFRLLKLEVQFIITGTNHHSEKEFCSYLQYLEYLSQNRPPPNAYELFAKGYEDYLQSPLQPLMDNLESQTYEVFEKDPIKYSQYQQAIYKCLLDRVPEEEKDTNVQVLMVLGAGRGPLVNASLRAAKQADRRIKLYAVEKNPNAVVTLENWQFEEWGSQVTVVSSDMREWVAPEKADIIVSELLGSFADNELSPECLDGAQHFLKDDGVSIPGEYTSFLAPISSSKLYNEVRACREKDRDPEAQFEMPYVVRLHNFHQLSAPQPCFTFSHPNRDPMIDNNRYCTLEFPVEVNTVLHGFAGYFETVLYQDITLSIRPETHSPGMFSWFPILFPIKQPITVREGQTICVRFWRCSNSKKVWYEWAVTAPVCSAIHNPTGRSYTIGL

IC50	Structure (SMILES)
1 nM	Nc1ncnc2c1c(Br)cn2[C@@H]1C[C@H](Oc2cc(Cl)cc3c2CNCC3)[C@@H](O)[C@H]1O [US10709709, Example 131]
1 nM	Cc1ncnc2c1ccn2[C@@H]1C[C@H](Oc2cc(C(F)F)cc3c2CNCCO3)[C@@H](O)[C@H]1O [US10709709, Example 205]
2 nM	Cc1cc2c(c(O[C@H]3C[C@@H](n4ccc5c(C)ncnc54)[C@H](O)[C@@H]3O)c1)CNCCO2 [US10709709, Example 206]
